We go through 16 compounds from patent US10040749B2, “Opsin-binding ligands, compositions and methods of use” (priority 2011, dated 2018).

The first assay relates to P23H opsin. Kind of assay: Rhodopsin purification and regeneration (P23H cells treated with compound, regenerated with 9-cis-retinal, 480-500 nm absorbance). To be noted: 480-500 nm absorbance as fold increase over DMSO control; P23H cells; compound 10 μM.
`CC1=C(CNc2cccc(F)c2)C(C)(C)CCC1.Cl` [Compound 10, 3-fluoro-N-((2,6,6-trimethylcyclohex-1-enyl)methyl)aniline hydrochloride]: the “Fold Increase Over Control” value amounted to 2.1 fold.

Take `CC1=C(CNc2cccc(C(F)(F)F)c2)C(C)(C)CCC1.Cl` [Compound 1, 3-(trifluoromethyl)-N-((2,6,6-trimethylcyclohex-1-enyl)methyl)aniline hydrochloride]: the “Fold Increase Over Control” value is reported as 1.8 fold.

Consider `CC1=C(CNc2ccc(F)c(C)c2)C(C)(C)CCC1.Cl` [Compound 15, 4-fluoro-3-methyl-N-((2,6,6-trimethylcyclohex-1-enyl)methyl)aniline hydrochloride], for which the “Fold Increase Over Control” value turned out to be 1.6 fold.

As to `CC1=C(COc2cccc(Cl)c2)C(C)(C)CCC1` [Compound 8, 1-chloro-3-((2,6,6-trimethylcyclohex-1-enyl)methoxy)benzene], the “Fold Increase Over Control” value came to 2.2 fold.

In the case of `CC1=C(CNc2cccc(Cl)c2)C(C)(C)CCC1` [Compound 5, 3-chloro-N-((2,6,6-trimethylcyclohex-1-enyl)methyl)aniline], the “Fold Increase Over Control” value was 1.8 fold.

In the case of `CC1(C)CCCC=C1CNc1cccc(F)c1.Cl` [Compound 32, N-((6,6-dimethylcyclohex-1-enyl)methyl)-3-fluoroaniline hydrochloride], the “Fold Increase Over Control” value worked out at 1.7 fold.

Take `CC1=C(CNc2cccc(C)c2)C(C)(C)CCC1` [Compound 2, 3-methyl-N-((2,6,6-trimethylcyclohex-1-enyl)methyl)aniline]: the “Fold Increase Over Control” value was 2.0 fold.

Consider `C[C@H]1CCCC(C)(C)[C@@H]1CNc1cccc(F)c1.Cl` [Compound 38, 3-fluoro-N-(((1R,6S)-2,2,6-trimethylcyclohexyl)methyl)aniline hydrochloride], for which the “Fold Increase Over Control” value stood at 2.4 fold.

On to `CC1=C(COc2cccc(F)c2)C(C)(C)CCC1` [Compound 7, 1-fluoro-3-((2,6,6-trimethylcyclohex-1-enyl)methoxy)benzene], for which the “Fold Increase Over Control” value was 2.4 fold.

As for `C[C@H]1CCCC(C)(C)[C@@H]1CNc1cccc(Cl)c1.Cl` [Compound 37, 3-chloro-N-(((1R,6S)-2,2,6-trimethylcyclohexyl)methyl)aniline hydrochloride], the “Fold Increase Over Control” value turned out to be 2.4 fold.

`CC1=C(COc2ccc(F)c(F)c2)C(C)(C)CCC1` [Compound 29, 1,2-difluoro-4-((2,6,6-trimethylcyclohex-1-enyl)methoxy) benzene]: the “Fold Increase Over Control” value is 2.4 fold.

As for `CC1=C(C(O)Cc2ccc(C)c(C)c2)C(C)(C)CCC1` (centres unmarked) [Compound 30, 2-(3,4-dimethylphenyl)-1-(2,6,6-trimethylcyclohex-1-enyl)ethanol], the “Fold Increase Over Control” value turned out to be 1.8 fold.

Take `CC1=C(COc2cccc(C)c2)C(C)(C)CCC1` [Compound 6, 1-methyl-3-((2,6,6-trimethylcyclohex-1-enyl)methoxy)benzene]: the “Fold Increase Over Control” value is recorded as 1.6 fold.

The assay is the same for the next values; noted with them: 480-500 nm absorbance as fold increase over DMSO control; P23H cells; compound 20 μM.
For the compound `CC1=C(CC(O)c2cccc(C(F)(F)F)c2)C(C)(C)CCC1` (centres unmarked) [Compound 20, 1-(3-(trifluoromethyl)phenyl)-2-(2,6,6-trimethylcyclohex-1-enyl)ethanol], the “Fold Increase Over Control” value worked out at 2.4 fold.

Regarding `CC(=O)/C=C/C1=C(C)CCCC1(C)C` [β-ionone, reference compound], the “Fold Increase Over Control” value amounted to 2.4 fold.

Regarding `C[C@H]1CCCC(C)(C)[C@@H]1CNc1cccc(C(F)(F)F)c1.Cl` [Compound 12, 3-(trifluoromethyl)-N-(((1R,6S)-2,2,6-trimethylcyclohexyl)methyl)aniline hydrochloride], the “Fold Increase Over Control” value is 2.0 fold.

Still in this assay, the particulars now being: FIG. 1; P23H opsin treated with 20 μM during mutant protein production, relative to vehicle (DMSO) alone.
For the compound `CC(=O)/C=C/C1=C(C)CCCC1(C)C` [β-ionone, reference compound], the “regeneration of 500 nm absorbing pigment upon treatment with retinal” value is given as “increase”.
